Data taken from patent US8772235B2, “Compounds having peptides conjugated to bone targeting moieties and methods of making and using thereof” (The Governors of the University of Alberta, priority 2009, dated 2014).

What was measured:
[1] = Effect on plasma phosphate level in normal rats (SMCC series); type: in vivo, rat; conditions: 20 IU sCT/kg equivalent, subcutaneous
Procedure: (§1) Pharmacodynamic response of sCT analogue was evaluated by analyzing plasma calcium concentration in the rat model. Sprague Dawley female rats weighing 230-260 g (about 6 weeks old) were purchased from Charles River, USA and housed at the University of Alberta Animal Holding Unit. All experimental protocols were approved by the Animals Ethics Committee of the University of Alberta. The rats were divided randomly into five groups of 3 animals each and the pharmacodynamic response was assessed following subcutaneous administration of the sCT or analogue equivalent to 20 IU sCT/kg body weight. Rats were anesthetized using Isoflurane inhalation anesthesia and the 200 μl blood samples were obtained in heparinized Eppendorf microtubes before drug injection. Then 100 μl of sCT or equivalent dose in 20 mM Sodium Acetate buffer pH 5 was sub cu injected and the blood samples were collected 1, 2, 3 and 4 hrs post injection from jugular vein. Blood plasma was obtained by centrifuging the samples at 5000 rpm for 10 min and collecting the supernatant. Plasma calcium level was assayed by QuantiChrom™ Calcium Assay Kit (BioAssay Systems, CA USA) and the plasma phosphate level was assayed by QuantiChrom™ Phosphate Assay Kit (BioAssay Systems, CA USA).

[2] = Circular dichroism, secondary structure of sCT, sCT-SMCC and sCT-BP; type: physicochemical; conditions: 20 mM acetate buffer pH 5.0, 400 μg/mL sCT or equivalent
Procedure: For a more detailed analysis of the influence of BP coupling on secondary structural confirmation of sCT, the circular dichroism (CD) spectrum of sCT, sCT-SMCC and sCT-BP was measured in the 20 mM acetate buffer pH 5.0. CD spectra were obtained with a ConvCD spectrophotometer instrument. Spectra were acquired over a wavelength range of 190 to 260 nm. The N2 flow rate was set at 5 l/min. The sample cuvette was cleaned with 20 mM Sodium Acetate buffer pH 5, and the spectra of test samples, which comprised of 400 μg/mL of sCT or equivalent the same buffer, were recorded with the corresponding buffer serving as blanks.

[3] = Effect on plasma calcium level in normal rats (SMCC series); type: in vivo, rat; conditions: 20 IU sCT/kg equivalent, subcutaneous
Procedure: as §1

[4] = first hour, vs acetate buffer controls

Substance	percentage of plasma phosphate reduction ([1]; 4 hour post dosing) [%]	percentage of plasma phosphate reduction [1, 4] [%]	percentage of plasma phosphate reduction ([1]; second hour) [%]	secondary structure by CD spectrum [2]	percentage of plasma calcium reduction ([3]; 4 hour post dosing) [%]	percentage of plasma calcium reduction [3, 4] [%]	percentage of plasma calcium reduction ([3]; second hour) [%]	percentage of plasma calcium reduction ([3]; third hour) [%]
sCT-BP: sCT-SMCC coupled with Thiol-BP (thiol bisphosphonate); mixture of sCT-2SMCC-1BP to sCT-3SMCC-3BP	8.54±5.11	7.65±4.73	12.47±5.09	strong 6-helical character	27.36±2.28	13.45±1.64	12.47±5.09	26.62±5.28
sCT-SMCC: sCT reacted with sulfo-SMCC: mono-, di- and tri-substituted thiol reactive sCT intermediates	10.4±0.54	9.18±1.87	12.18±2.03	increased peak intensity at 222 nm	28.05±2.08	15.27±2.35	19.43±2.32	24.48±2.83
